Earlier results in patent publication US4886800A, “Substituted cinnoline derivatives as CNS depressants” (ICI Americas Inc., priority 1985, dated 1989).

System: specific [3H]flunitrazepam binding, lysed mitochondrial-synaptosomal (P2) fraction of cerebral cortex
Settings: reference behaviour stated in the description of the test

| Structure (SMILES) | effect on flunitrazepam binding |
| --- | --- |
| CCCCNc1c(C(=O)OCC)cnc2c1cnn2CC [cartazolate] | enchancement of the binding |
| CCCCNc1c(C(=O)OCC)c(C)nc2c1cnn2CC [tracazolate] | enchancement of the binding |
